Here are results for 32 molecules from US8629143B2, “Potassium channel modulators” (AbbVie Inc., priority 2009, dated 2014).

The test deals with T1, KCNQ 2/3 channels (HEK293 cells stably expressing human KCNQ2 and KCNQ3 subunits) (Homo sapiens, UniProt O43525+O43526).
T1 construct: expressed in transfected cells; host or cells: HEK293
Briefly: KCNQ2/3 channel activation, thallium flux FLIPR assay with BTC-AM dye. Format: cell-based. As to conditions: for Emax: HEK293, maximum response relative to the response produced by 10 μM retigabine (set at 100%), read-out: Max. %; for EC50: HEK293 cells expressing human KCNQ2 and KCNQ3, thallium flux, FLIPR. In outline: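 HEK293 cells stably expressing human KCNQ2/KCNQ3 were loaded with BTC-AM (3 μg/mL, 2 h, RT) and preincubated with compound for 4 min in pH 7.3 gluconate buffer containing 0.1 mM ouabain. Flux was triggered by 6 mM TlNO3/10 mM K2SO4 and read for 3 min; EC50 came from summed responses over basal, with maximum relative to 10 μM retigabine (100%).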

Structures are written as SMILES.

Broadly, the EC50 is the concentration at which the effect is half-maximal. Read a low EC50 as greater potency. In the case of `O=C(CC12CC3CC(CC(C3)C1)C2)Nn1nc(-c2cccc(Cl)c2)c2ccccc2c1=O` [Example 126, 2-(adamantan-1-yl)-N-[4-(3-chlorophenyl)-1-oxophthalazin-2(1H)-yl]acetamide], the Emax amounted to 153% and the EC50 lay in the range of 0.1 to 0.5 µM.

For `O=C(CC1CC2CCC1C2)Nn1nc(-c2ccc(F)cc2)c2ccccc2c1=O` (racemic) [Example 131, (±)-2-(exo-bicyclo[2.2.1]hept-2-yl)-N-[4-(4-fluorophenyl)-1-oxophthalazin-2(1H)-yl]acetamide], the Emax worked out at 150% and the EC50 is below 0.1 µM.

For `O=C(Cc1ccc(Cl)cc1Cl)Nn1nc(-c2ccccc2)c2ccccc2c1=O` [Example 83, 2-(2,4-dichlorophenyl)-N-(1-oxo-4-phenylphthalazin-2(1H)-yl)acetamide], the Emax was 13% and the EC50 is above 10 µM.

For `CC(C)c1nn(NC(=O)CC23CC4CC(CC(F)(C4)C2)C3)c(=O)c2ccccc12` [Example 60, 2-(3-fluoroadamantan-1-yl)-N-(4-isopropyl-1-oxophthalazin-2(1H)-yl)acetamide], the Emax amounted to 214% and the EC50 is below 0.1 µM.

As to `COC(=O)c1ccc(-c2nn(NC(=O)C[C@H]3C[C@@H]4CC[C@H]3C4)c(=O)c3ccccc23)cc1` (racemic) [Example 79, (±)-methyl 4-(3-{[exo-bicyclo[2.2.1]hept-2-ylacetyl]amino}-4-oxo-3,4-dihydrophthalazin-1-yl)benzoate], the Emax stood at 144% and the EC50 was below 0.1 µM.

Turning to `O=C(CC12CC3CC(CC(C3)C1)C2)Nn1nc(C(F)(F)F)c2ccccc2c1=O` [Example 12, 2-(1-adamantyl)-N-[1-oxo-4-(trifluoromethyl)phthalazin-2(1H)-yl]acetamide], the Emax is 169% and the EC50 was 0.1 to 0.5 µM.

Turning to `O=C(CC12CC3CC(CC(C3)C1)C2)Nn1nc(-c2ccccc2)c2c(c1=O)CCC2` [Example 189, 2-(adamantan-1-yl)-N-(1-oxo-4-phenyl-1,5,6,7-tetrahydro-2H-cyclopenta[d]pyridazin-2-yl)acetamide], the Emax is 152% and the concentration giving a half-maximal response (EC50) fell in the range of 0.1 to 0.5 µM.

Regarding `Cc1ccc(-c2nn(NC(=O)CC3CC4CCC3C4)c(=O)c3ccccc23)cc1C` (racemic) [Example 163, (±)-2-(exo-bicyclo[2.2.1]hept-2-yl)-N-[4-(3,4-dimethylphenyl)-1-oxophthalazin-2(1H)-yl]acetamide], the Emax came to 177% and the EC50 is below 0.1 µM.

For the molecule `CC1(C)[C@H]2CC[C@@H](CC(=O)Nn3nc(-c4ccccc4)c4ccsc4c3=O)[C@@H]1C2` [Example 30, 2-[(1S,2S,5S)-6,6-dimethylbicyclo[3.1.1]hept-2-yl]-N-(7-oxo-4-phenylthieno[2,3-d]pyridazin-6(7H)-yl)acetamide], the Emax stood at 94% and the EC50 fell in the range of 1 to 10 µM.

`O=C(Cc1cccnc1)Nn1nc(-c2ccc(Cl)cc2)c2ccccc2c1=O` [Example 93, N-[4-(4-chlorophenyl)-1-oxophthalazin-2(1H)-yl]-2-(pyridin-3-yl)acetamide]: the Emax came to 149% and the EC50 is 1 to 10 µM.

`Cc1ccc(C)c(-c2nn(NC(=O)Cc3ccc(Cl)cc3)c(=O)c3ccccc23)c1` [Example 157, 2-(4-chlorophenyl)-N-[4-(2,5-dimethylphenyl)-1-oxophthalazin-2(1H)-yl]acetamide]: the Emax turned out to be 155% and the EC50 was 0.1 to 0.5 µM.

As for `Cc1ccc(-c2nn(NC(=O)C[C@@H]3CC[C@H]4C[C@@H]3C4(C)C)c(=O)c3ccccc23)cc1` [Example 137, 2-[(1S,2S,5S)-6,6-dimethylbicyclo[3.1.1]hept-2-yl]-N-[4-(4-methylphenyl)-1-oxophthalazin-2(1H)-yl]acetamide], the Emax came to 95% and the EC50 was in the range of 0.1 to 0.5 µM.

Turning to `O=C(Cc1ccc(F)cc1)Nn1nc(-c2ccccc2)c2ccccc2c1=O` [Example 26, 2-(4-fluorophenyl)-N-(1-oxo-4-phenylphthalazin-2(1H)-yl)acetamide], the Emax worked out at 157% and the half-maximal effective concentration (EC50) was 0.1 to 0.5 µM.

With `O=C(Cc1cc(F)cc(F)c1)Nn1nc(Cc2ccc(Cl)cc2)c2ccccc2c1=O` [Example 146, N-[4-(4-chlorobenzyl)-1-oxophthalazin-2(1H)-yl]-2-(3,5-difluorophenyl)acetamide], the Emax is 83% and the EC50 is 0.1 to 0.5 µM.

Consider `O=C(CC1CC2CCC1C2)Nn1nc(-c2ccc(C(=O)O)cc2)c2ccccc2c1=O` (racemic) [Example 78, (±)-4-(3-{[(exo-bicyclo[2.2.1]heptan-2-yl)acetyl]amino}-4-oxo-3,4-dihydrophthalazin-1-yl)benzoic acid], for which the Emax is 140% and the concentration for a half-maximal effect (EC50) is 1 to 10 µM.

On to `CC(C)(CC(=O)Nn1nc(-c2ccccc2)c2ccccc2c1=O)c1ccccc1` [Example 82, 3-methyl-N-(1-oxo-4-phenylphthalazin-2(1H)-yl)-3-phenylbutanamide], for which the Emax stood at 156% and the EC50 is 0.1 to 0.5 µM.

In the case of `Cc1ccc(C)c(-c2nn(NC(=O)Cc3cc(F)cc(F)c3)c(=O)c3ccccc23)c1` [Example 158, 2-(3,5-difluorophenyl)-N-[4-(2,5-dimethylphenyl)-1-oxophthalazin-2(1H)-yl]acetamide], the Emax was found to be 167% and the half-maximal effective concentration (EC50) lay within 0.1 to 0.5 µM.

On to `O=C(Cc1cc(F)cc(F)c1)Nn1nc(-c2ccccc2)c2c(c1=O)CCCC2` [Example 186, 2-(3,5-difluorophenyl)-N-(1-oxo-4-phenyl-5,6,7,8-tetrahydrophthalazin-2(1H)-yl)acetamide], for which the Emax is 136% and the EC50 was 0.1 to 0.5 µM.

As to `Cc1nn(NC(=O)Cc2ccc(Cl)cc2)c(=O)c2ccccc12` [Example 28, 2-(4-chlorophenyl)-N-(4-methyl-1-oxophthalazin-2(1H)-yl)acetamide], the Emax was 121% and the EC50 was in the range of 1 to 10 µM.

Consider `CC(C)(C)c1nn(NC(=O)CC2CCCC2)c(=O)c2ccccc12` [Example 62, N-(4-tert-butyl-1-oxophthalazin-2(1H)-yl)-2-cyclopentylacetamide], for which the Emax is 149% and the EC50 is below 0.1 µM.

In the case of `O=C(Cc1ccc(Cl)cc1)Nn1nc(Cc2ccc(Cl)cc2)c2ccccc2c1=O` [Example 145, N-[4-(4-chlorobenzyl)-1-oxophthalazin-2(1H)-yl]-2-(4-chlorophenyl)acetamide], the Emax stood at 101% and the concentration for a half-maximal effect (EC50) lay in the range of 0.1 to 0.5 µM.

Regarding `O=C(CC1CCCC1)Nn1nc(C(F)(F)F)c2ccccc2c1=O` [Example 43, 2-cyclopentyl-N-[1-oxo-4-(trifluoromethyl)phthalazin-2(1H)-yl]acetamide], the Emax came to 112% and the EC50 lay within 0.1 to 0.5 µM.

For the molecule `O=C(CC1(c2ccccc2)CC1)Nn1nc(C(F)(F)F)c2ccccc2c1=O` [Example 51, N-[1-oxo-4-(trifluoromethyl)phthalazin-2(1H)-yl]-2-(1-phenylcyclopropyl)acetamide], the Emax was -2% and the EC50 is above 10 µM.

On to `O=C(Cc1cc(F)cc(F)c1)Nn1nc(C2CC2)c2ccccc2c1=O` [Example 23, N-(4-cyclopropyl-1-oxophthalazin-2(1H)-yl)-2-(3,5-difluorophenyl)acetamide], for which the Emax was 156% and the EC50 was 0.5 to 1 µM.

Turning to `O=C(Cc1ccc(Cl)cc1)Nn1nc(-c2ccccc2)c2c(c1=O)CCC2` [Example 190, 2-(4-chlorophenyl)-N-(1-oxo-4-phenyl-1,5,6,7-tetrahydro-2H-cyclopenta[d]pyridazin-2-yl)acetamide], the Emax worked out at 124% and the EC50 lay in the range of 1 to 10 µM.

Take `O=C(Cc1cc(F)cc(F)c1)Nn1nc(-c2ccc(Cl)cc2)c2ccccc2c1=O` [Example 118, N-[4-(4-chlorophenyl)-1-oxophthalazin-2(1H)-yl]-2-(3,5-difluorophenyl)acetamide]: the Emax came to 128% and the EC50 is below 0.1 µM.

With `O=C(Cc1ccc(Cl)cc1)Nn1nc(C2CCCCC2)c2ccccc2c1=O` [Example 76, 2-(4-chlorophenyl)-N-(4-cyclohexyl-1-oxophthalazin-2(1H)-yl)acetamide], the Emax was determined as 157% and the EC50 was in the range of 0.1 to 0.5 µM.

For `O=C(CC(F)(F)F)Nn1nc(-c2ccc(Cl)cc2)c2ccccc2c1=O` [Example 124, N-[4-(4-chlorophenyl)-1-oxophthalazin-2(1H)-yl]-3,3,3-trifluoropropanamide], the Emax worked out at 33% and the EC50 lay in the range of 1 to 10 µM.

`Cc1ccc(CC(=O)Nn2nc(-c3ccc(Cl)cc3)c3ccccc3c2=O)cc1` [Example 107, N-[4-(4-chlorophenyl)-1-oxophthalazin-2(1H)-yl]-2-(4-methylphenyl)acetamide]: the Emax came out at 98% and the EC50 was 0.1 to 0.5 µM.

Consider `CC(C)(CC(=O)Nn1nc(-c2ccc(Br)cc2)c2ccccc2c1=O)c1ccccc1` [Example 85, N-[4-(4-bromophenyl)-1-oxophthalazin-2(1H)-yl]-3-methyl-3-phenylbutanamide], for which the Emax is 117% and the EC50 fell in the range of 0.1 to 0.5 µM.

`CC1(CC(=O)Nn2nc(-c3ccc(Cl)cc3)c3ccccc3c2=O)CCCC1` [Example 86, N-[4-(4-chlorophenyl)-1-oxophthalazin-2(1H)-yl]-2-(1-methylcyclopentyl)acetamide]: the Emax came out at 166% and the EC50 is below 0.1 µM.

Turning to `O=C(Cc1cc(F)cc(F)c1)Nn1nc(-c2ccccc2)c2cc(F)ccc2c1=O` [Example 35, 2-(3,5-difluorophenyl)-N-(6-fluoro-1-oxo-4-phenylphthalazin-2(1H)-yl)acetamide], the Emax turned out to be 192% and the EC50 lay in the range of 0.1 to 0.5 µM.
